# Patent US9034922B2, “Composition for maintaining function of platelets” (THE UNIVERSITY OF TOKYO, priority 2010, dated 2015)
# How the values were obtained:
# [1] = biological target: T1, Matrix metalloproteinase 17 (MMP-17) (Homo sapiens, UniProt Q9ULZ9); assay: Enzyme inhibition experiment, MMP-17; type: biochemical; details: 3163 substrate, 25° C., 5 hours
# T1 construct: purchased Calbiochem 475940
# T1 sequence (Q9ULZ9 126-298 limits assumed): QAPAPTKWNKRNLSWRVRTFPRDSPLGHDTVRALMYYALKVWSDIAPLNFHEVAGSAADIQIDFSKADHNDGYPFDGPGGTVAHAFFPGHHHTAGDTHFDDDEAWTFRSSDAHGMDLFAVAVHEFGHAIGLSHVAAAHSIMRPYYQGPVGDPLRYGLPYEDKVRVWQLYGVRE
# Procedure: Matrix metalloproteinase 17 (MMP-17) (manufactured by Calbiochem, product number: 475940)
# (§1) 3168 substrate (MOCAc-Arg-Pro-Lys-Pro-Val-Glu-Nva-Trp-Arg-Lys(Dnp)-NH2, manufactured by Peptide Institute, Inc.): excitation wavelength at 320 nm, emission wavelength at 405 nm, and 3163 substrate (MOCAc-Pro-Leu-Gly-Leu-A2pr(Dnp)-Ala-Arg-NH2, manufactured by Peptide Institute, Inc.): excitation wavelength at 320 nm, emission wavelength at 405 nm.
# (§2) The enzyme reaction was carried out using the enzymes and substrates. Specifically, if necessary, the enzyme was activated in advance with APMA (final concentration 1 mmol/L, p-aminophenylmercuric acetate, manufactured by Sigma-Aldrich Co., A9563) according to information from the manufacturer. Then, in a 96-well plate for fluorescence measurement, 90 μL of an enzyme solution prepared with Assay Buffer A (50 mmol/L Tris-HCl buffer (pH 7.5) containing 200 mmol/L sodium chloride, 5 mmol/L calcium chloride, 10 μmol/L zinc sulfate, and 2 mg/mL bovine serum albumin) was mixed with 90 μL of the substrate adjusted to be 20 μmol/L with Assay Buffer B (50 mmol/L Tris-HCl buffer (pH 7.5) containing 200 mmol/L sodium chloride, 5 mmol/L calcium chloride, 10 μmol/L zinc sulfate, and 0.05% PLURONIC F-68), and incubated for reaction at 25° C. or 37° C. for several hours. Moreover, the fluorescence intensities before and after the reaction were measured using a fluorometer to determine the enzyme activity. An inhibition rate was obtained based on the enzyme activities in the presence and absence of the test substances, and the 50% inhibitory concentration (IC50) was calculated.
# [2] = test system: ES cell-derived platelets (ADAM17-mediated GPIbα shedding); assay: Function-maintaining effect on ES cell-derived platelets in culture system (flow cytometry CD41/CD42b, platelet count)
# Procedure: As human ES cells (hES cells), a KhES cell line (KhES-3) established by and provided from Institute for Frontier Medical Sciences, Kyoto University was used.
# The human ES cells or the human iPS cells were seeded on the feeder cells such that the cell count was 5×10^4 to 1×10^5/10-cm dish. The cells were cultured in Iscove's Modified Dulbecco's Medium (IMDM, manufactured by Invitrogen Corp/GIBCO) supplemented with 15% FBS (product name: CELLect™ GOLD, manufactured by ICN Biomedicals Inc.), 2 mM L-glut amine (manufactured by Invitrogen Corp.), ITS supplement (10 μg/ml insulin, 5.5 mg/ml human transferrin, 5 ng/ml sodium selenite) (manufactured by Sigma-Aldrich Co.), 50 μg/ml ascorbic acid (Sigma-Aldrich Co.), 0.45 mM α-monothioglycerol (MTG, manufactured by Sigma-Aldrich Co.), and 20 ng/ml vascular endothelial growth factor (VEGF, manufactured by R&D Systems, Inc.). Further, this culturing was carried out at 37° C. in 5% CO2 and 21% O2 (atmospheric oxygen) using a CO2 incubator (product name: HERA CELL 150i, manufactured by Thermo Fisher Scientific K. K.). Then, the medium was replaced every 3 days, and the culturing was continued under the conditions until Day 15 when a large number of sac structures (sac-like structures) containing hematopoietic progenitor cells therein were observed.
# Next, after detached from the dish, the sac structures were disrupted and suspended in a 3% FBS-containing phosphate buffer solution (PBS). Then, the suspension was passed through a 40-μm cell strainer (manufactured by BD). The solution thus passed through was centrifuged at 440×g for 10 minutes to collect hematopoietic progenitor cells, and the cells was counted. The hematopoietic progenitor cells were seeded on 10T1/2 cells newly prepared in a 6-well plate (6×10^5 cells/plate) exposed to 50-Gy radiation such that the number of the hematopoietic progenitor cells was 2 to 3×10^4/well. The hematopoietic progenitor cells were further cultured for 8 days in IMDM (manufactured by Invitrogen Corp/GIBCO) supplemented with 15% FBS (product name: CELLect™ GOLD, manufactured by ICN Biomedicals Inc.), 2 mM L-glutamine (manufactured by Invitrogen Corp.), ITS supplement (10 μg/ml insulin, 5.5 mg/ml transferrin, 5 ng/ml sodium selenite) (manufactured by Sigma-Aldrich Co.), 50 μg/ml ascorbic acid (manufactured by Sigma-Aldrich Co.), 0.45 mM MTG (manufactured by Sigma-Aldrich Co.), 100 ng/ml human thrombopoietin (human TPO, manufactured by PeproTech, Inc.), 50 ng/ml human stem cell factor (SCF, manufactured by PeproTech, Inc.), and 25 U/ml heparin. Thereby, megakaryocytes/platelets were induced.
# Subsequently, the induced megakaryocytes/platelets were collected with an anticoagulant solution (Acid Citrate Dextrose, ACD), followed by centrifugation at 900 rpm for 10 minutes without a break. The supernatant obtained by the centrifugation was further centrifuged at 1500 rpm for 10 minutes without a break to remove the supernatant. Thereafter, the numbers of megakaryocytes and platelets in the precipitate thus obtained were analyzed by flow cytometry using antibodies for staining.
# Note that, in the flow cytometry, FACS Aria manufactured by Becton, Dickinson and Company was used. As the antibodies used to stain the megakaryocytes and the platelets, used were a Phycoerythrin (PE)-modified anti-human CD42a (GPIX) antibody, a PE-modified anti-human CD42b (GPIbα) antibody, and an allophycocyanin (APC)-labelled anti-CD41a (integrin αIIbbeta3 complex, HIP8 clone) antibody (manufactured by BD Bioscience). Additionally, in order to accurately measure the absolute numbers of the megakaryocytes and the platelets, the cells were stained with these antibodies, and the analysis was conducted by flow cytometry using TruCount beads (manufactured by BD Bioscience), also.
# [3] = biological target: T2, Matrix metalloproteinase 13 (MMP-13) (Homo sapiens, UniProt P45452); assay: Enzyme inhibition experiment, MMP-13; type: biochemical; details: 444221 substrate, 37° C., 4 hours
# T2 construct: purchased Chemicon CC068
# Procedure: Matrix metalloproteinase 13 (MMP-13) (manufactured by Chemicon, product number: CC068)
# as §2, with “activity.” for “activity. An inhibition rate was obtained based on the enzyme activities in the presence and absence of the test substances, and the 50% inhibitory concentration (IC50) was calculated.”
# [4] = biological target: T3, Matrix metalloproteinase 3 (MMP-3) (Homo sapiens, UniProt P08254); assay: Enzyme inhibition experiment, MMP-3; type: biochemical; details: 3168 substrate, 37° C., 4 hours
# T3 construct: purchased Calbiochem 444217
# Procedure: Matrix metalloproteinase 3 (MMP-3) (manufactured by Calbiochem, product number: 444217)
# as §1, §2
# ADAM17 = biological target: T4, ADAM17 (Homo sapiens, UniProt P78536); assay: ADAM17 inhibition experiment (fluorescent synthetic substrate); type: biochemical
# T4 construct: made in house; host or cells: mammalian cells or insect cells
# Procedure: The cDNA was incorporated into an expression vector. Then, this vector was transfected into mammalian cells or insect cells, and ADAM17 was expressed and obtained.
# Next, the activity of ADAM17 was measured, as follows in the presence or absence of the test substances, in which obtained ADAM17 was used as an enzyme, and a fluorescent synthetic substrate Nma (N-methyl anthranilate)-[…]Dnp (dinitrophenyl)-D-Arg-NH2 containing an ADAM17-cleavage sequence of membrane-bound TNF was used as a substrate.
# Specifically, 90 μL of 14 units of an enzyme solution (1 unit is defined as an amount of enzyme degrading […] of the substrate in 1 minute at 25° C.) prepared with Assay Buffer A (50 mmol/L Tris-HCl buffer (pH 7.5) containing 200 mmol/L sodium chloride, 5 mmol/L calcium chloride, 10 μmol/L zinc sulfate, and 2 mg/mL bovine serum albumin) was mixed with 90 μL of the fluorescent synthetic substrate adjusted to be 20 μmol/L with Assay Buffer B (50 mmol/L Tris-HCl buffer (pH 7.5) containing 200 mmol/L sodium chloride, 5 mmol/L calcium chloride, 10 μmol/L zinc sulfate, and 0.05% PLURONIC F-68), and allowed for reaction at 37° C. for 1.5 hours. Thereafter, the enzyme activity was determined by measurement using a fluorometer (Fluoroskan Ascent) under conditions of an excitation wavelength of 355 nm and a measurement wavelength of 460 nm. Then, an inhibition rate was obtained based on the enzyme activities in the presence and absence of the test compounds, and the 50% inhibitory concentration (IC50) was calculated.
# A disintegrin and metalloproteinase 17 (ADAM17, TACE) (used was one prepared at Kaken Pharmaceutical Co., Ltd. by employing the genetic recombination in the same way as in Test Example 3. Note that, the same as in Test Example 3, 1 unit is defined as an amount of enzyme degrading 1 pmol of substrate in 1 minute at 25° C.)
# (§3) TACE substrate (the same as one used in Test Example 3): excitation wavelength at 355 nm, emission wavelength at 460 nm
# as §2
# [5] = biological target: T5, A disintegrin and metalloproteinase 10 (ADAM10) (Homo sapiens, UniProt O14672); assay: Enzyme inhibition experiment, ADAM10; type: biochemical; details: TACE substrate, 25° C., 5 hours
# T5 construct: purchased Funakoshi Co., Ltd. 936-AD-020
# T5 sequence (O14672 214-672 limits assumed): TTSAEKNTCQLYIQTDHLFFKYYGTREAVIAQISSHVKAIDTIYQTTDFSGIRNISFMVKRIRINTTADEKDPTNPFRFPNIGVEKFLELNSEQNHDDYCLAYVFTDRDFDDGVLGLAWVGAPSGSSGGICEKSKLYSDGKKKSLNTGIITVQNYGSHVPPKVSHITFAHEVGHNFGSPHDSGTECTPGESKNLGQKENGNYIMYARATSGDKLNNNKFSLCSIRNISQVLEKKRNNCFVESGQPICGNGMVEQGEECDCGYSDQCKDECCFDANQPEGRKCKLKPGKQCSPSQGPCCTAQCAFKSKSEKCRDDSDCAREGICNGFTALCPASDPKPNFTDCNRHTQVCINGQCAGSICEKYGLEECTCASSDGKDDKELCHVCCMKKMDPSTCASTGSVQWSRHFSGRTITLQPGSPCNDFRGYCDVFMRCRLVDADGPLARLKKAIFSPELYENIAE
# Procedure: A disintegrin and metalloproteinase 10 (ADAM10) (manufactured by Funakoshi Co., Ltd., product code: 936-AD-020) and
# as §3, §2
# [6] = biological target: T6, Matrix metalloproteinase 14 (MMP-14) (Homo sapiens, UniProt P50281); assay: Enzyme inhibition experiment, MMP-14; type: biochemical; details: 444221 substrate, 37° C., 5 hours
# T6 construct: purchased Calbiochem 475935
# Procedure: Matrix metalloproteinase 14 (MMP-14) (manufactured by Calbiochem, product number: 475935)
# 444221 substrate (DNP-Pro-Cha-Gly-Cys(Me)-His-Ala-Lys(Nma)-NH2, custom synthesis): excitation wavelength at 355 nm, emission wavelength at 460 nm
# as §2
# T4 sequence (P78536 215-824): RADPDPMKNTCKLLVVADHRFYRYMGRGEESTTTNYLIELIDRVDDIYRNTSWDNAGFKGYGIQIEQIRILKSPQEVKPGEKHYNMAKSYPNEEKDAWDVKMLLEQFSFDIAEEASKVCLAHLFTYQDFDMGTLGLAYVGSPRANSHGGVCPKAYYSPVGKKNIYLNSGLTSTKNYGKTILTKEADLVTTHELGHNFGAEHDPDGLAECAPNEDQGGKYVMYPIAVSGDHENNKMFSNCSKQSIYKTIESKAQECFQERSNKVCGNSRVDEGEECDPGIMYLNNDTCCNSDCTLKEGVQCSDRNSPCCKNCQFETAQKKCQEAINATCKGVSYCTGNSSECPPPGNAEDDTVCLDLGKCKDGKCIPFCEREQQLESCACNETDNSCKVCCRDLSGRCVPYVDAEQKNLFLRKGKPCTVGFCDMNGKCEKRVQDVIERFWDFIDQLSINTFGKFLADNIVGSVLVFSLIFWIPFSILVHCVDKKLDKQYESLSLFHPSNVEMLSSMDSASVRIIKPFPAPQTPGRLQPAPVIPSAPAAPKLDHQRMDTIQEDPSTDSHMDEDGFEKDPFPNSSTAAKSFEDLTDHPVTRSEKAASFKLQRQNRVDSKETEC
# T3 sequence (P08254 100-272 limits assumed): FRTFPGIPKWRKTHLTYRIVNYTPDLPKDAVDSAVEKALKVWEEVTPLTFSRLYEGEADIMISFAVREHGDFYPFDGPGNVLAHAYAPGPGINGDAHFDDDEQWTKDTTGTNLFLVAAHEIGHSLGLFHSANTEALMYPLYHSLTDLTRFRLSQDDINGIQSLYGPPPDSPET
compound,measurement,setting,value
"CNC(=O)[C@H](Cc1c[nH]c2ccccc12)NC(=O)[C@@H](CC(=O)NO)CC(C)C [GM6001, reference compound]",IC50,[1],3 nM
same,cytotoxicity,"[2]; Test Example 5, 50 μM, 8-day addition",had cytotoxicity
same,number of platelets obtained,"[2]; Test Example 5, 8-day addition, 50 μM GM6001 vs 5 μM S-45282",fewer platelets than 5 μM S-45282
same,inhibition of ADAM17-mediated GPIbα shedding (CD42b(+) percentage),"[2]; Test Example 5, added for 2 days or 8 days, GM6001 50 μM, S-45282 5 μM or 50 μM",inhibit ADAM17-mediated GPIbα shedding
same,number of platelets obtained,"[2]; Test Example 5, added for 2 days, 50 μM GM6001, 5 μM S-45282",approximately the same
same,inhibition of ADAM17-mediated GPIbα shedding,"[2]; Test Example 6, 8 days, S-45457 5 μM or 50 μM, GM6001 50 μM",inhibits ADAM17-mediated GPIbα shedding
same,IC50,[3],0.26 nM
same,IC50,[4],32 nM
same,IC50,ADAM17,310 nM
same,inhibitory activity on ADAM17 enzyme (in words),ADAM17,weak
same,specificity to ADAM17 in comparison with metalloproteinases other than ADAM17,ADAM17; from Table 3,non-specifically and strongly inhibited metalloproteinases
same,IC50 ADAM10,[5],410 nM
same,IC50,[6],1.6 nM
